In patent US12582641B2, “Sulfur-containing compound based on glutarimide skeleton and application thereof” (SHANGHAITECH UNIVERSITY, priority 2019, dated 2026) one finds IC50 data, which are given here for 35 compounds.

This assay concerns MM.1S cells. Briefly: Proliferation inhibition (IC50) in MM.1S cells, cell viability assay. As to conditions: Homo sapiens, MM1.S, 72 h, read-out: IC50 (nM), proliferation inhibitory activity of MM.1S cells (half inhibitory concentration).
Protocol: MM.1S (B lymphoblast) was purchased from ATCC. Complete medium was RPMI1640 supplemented with 10% FBS and 1% Penicillin-Streptomycin. The cells used were identified as correct cells by STR cells, and were negative for mycoplasma through routine inspections.
IC50 values of the compounds of the present disclosure were measured using Cell Titer Blue, Cell Titer GLO, or WST reagent from Promega Company. Assay details are as follows: Cells were seeded in 100 μL RPMI1640 complete medium containing serum at a density of 15,000 cells/well. After 24 h, the inoculated cells were treated with diluted commercial inhibitor and the compounds of the present disclosure to be tested after serial dilution. After the cells were treated with the compounds of the present disclosure to be tested for 72 h, cell viability was determined after adding the cell viability detection kit listed above according to the reagent operating instructions. The negative control was DMSO, and the positive control was a commercial inhibitor, both of which were used to treat the cells through the same method as that of the compounds of the present disclosure. The growth inhibition of the compounds of the present disclosure on cells was plotted by Prism Graphpad software, and the IC50 values of the compounds of the present disclosure were calculated therefrom.
We tested the activities of the compounds of the present invention in MM.1S cell (which overexpressed IKZF1/3 and is highly sensitive to immunomodulatory drugs) through a dose-dependent manner. The cells were treated with the compounds of the present invention at 10 different successively decreasing concentrations (starting at the highest concentration of 10 μM; 5-fold serial dilutions) for 72 h, and then the cell viability determination was performed in accordance with CCK-8 reagent operating instructions. The experiment was repeated more than three times.
As for `CC1(C)[C@@H]2CC[C@@]1(C)[C@@H](NCc1ccc(CSc3cccc4c3C(=O)N(C3CCC(=O)NC3=O)C4=O)cc1)C2` (stereo partly drawn) [SIAIS1221147, 2-(2,6-dioxopiperidin-3-yl)-4-((4-((((1R,2S,4R)-1,7,7-trimethylbicyclo[2.2.1]heptan-2-yl)amino)methyl)benzyl)thio)isoindoline-1,3-dione], the IC50 came to 0.458 nM.

On to `CN1C(=O)CCC(N2Cc3c(SCCCCCCCNC45CC6CC(CC(C6)C4)C5)cccc3C2=O)C1=O` (centres unmarked) [SIAIS1221149, 3-(4-((7-(adamantan-1-ylamino)heptyl)thio)-1-oxoisoindolin-2-yl)-1-methylpiperidine-2,6-dione], for which the IC50 stood at 21.9 nM.

As to `O=C1CCC(N2C(=O)c3cccc(SCCCCCCCNC4CCCCC4)c3C2=O)C(=O)N1` (centres unmarked) [SIAIS1221175, 4-((7-(cyclohexylamino)heptyl)thio)-2-(2,6-dioxopiperidin-3-yl)isoindoline-1,3-dione], the IC50 was 0.938 nM.

In the case of `CC1(C)[C@@H]2CC[C@@]1(C)[C@@H](NCCCCCCCSc1cccc3c1C(=O)N(C1CCC(=O)NC1=O)C3=O)C2` (stereo partly drawn) [SIAIS1221177, 2-(2,6-dioxopiperidin-3-yl)-4-((7-(((1R,2S,4R)-1,7,7-trimethylbicyclo[2.2.1]heptan-2-yl)amino)heptyl)thio)isoindoline-1,3-dione], the IC50 was determined as 0.258 nM.

For the compound `O=C1CCC(N2C(=O)c3cccc(SCc4ccc(CNC56CC7CC(CC(C7)C5)C6)cc4)c3C2=O)C(=O)N1` (centres unmarked) [SIAIS1222013, 4-((4-(((adamantan-1-yl)amino)methyl)benzyl)thio)-2-(2,6-dioxopiperidin-3-yl)isoindoline-1,3-dione], the IC50 was determined as 0.621 nM.

Consider `CN(CCCCCCCSc1cccc2c1C(=O)N(C1CCC(=O)NC1=O)C2=O)C12CC3CC(CC(C3)C1)C2` (centres unmarked) [SIAIS1222029, 4-((7-((adamantan-1-yl)(methyl)amino)heptyl)thio)-2-(2,6-dioxopiperidin-3-yl)isoindoline-1,3-dione], for which the IC50 turned out to be 0.21 nM.

Regarding `O=C1CCC(N2C(=O)c3cccc(SCCCCCCNCC45CC6CC(CC(C6)C4)C5)c3C2=O)C(=O)N1` (centres unmarked) [SIAIS1222071, 4-((6-(((adamantan-1-yl)methyl)amino)hexyl)thio)-2-(2,6-dioxopiperidin-3-yl)isoindoline-1,3-dione], the IC50 was found to be 2.12 nM.

With `O=C1CCC(N2Cc3c(SCCCCCCCNC4CC5(CCC5)C4)cccc3C2=O)C(=O)N1` (centres unmarked) [SIAIS1222077, 3-(1-oxo-4-((7-(spiro[3.3]heptan-2-ylamino)heptyl)thio)isoindolin-2-yl)piperidine-2,6-dione], the IC50 was 0.006 nM.

With `CC(C)(C)NCCCCCCCSc1cccc2c1CN(C1CCC(=O)NC1=O)C2=O` (centres unmarked) [SIAIS1222079, 3-(4-((7-(tert-butylamino)heptyl)thio)-1-oxoisoindolin-2-yl)piperidine-2,6-dione], the IC50 is 0.135 nM.

As for `O=C1CCC(N2Cc3c(SCc4ccc(CNCC56CC7CC(CC(C7)C5)C6)cc4)cccc3C2=O)C(=O)N1` (centres unmarked) [SIAIS1222085, 3-(4-((4-(((adamantan-1-ylmethyl)amino)methyl)benzyl)thio)-1-oxoisoindolin-2-yl)piperidine-2,6-dione], the IC50 came to 0.029 nM.

Turning to `O=C1CCC(N2C(=O)c3cccc(SCCCCCNC45CC6CC(CC(C6)C4)C5)c3C2=O)C(=O)N1` (centres unmarked) [SIAIS1222097, 4-((5-((adamantan-1-yl)amino)pentyl)thio)-2-(2,6-dioxopiperidin-3-yl)isoindoline-1,3-dione], the IC50 was 0.409 nM.

As for `CN(CCCCCCCSc1cccc2c1CN(C1CCC(=O)NC1=O)C2=O)C1CC1` (centres unmarked) [SIAIS1222103, 3-(4-((7-(cyclopropyl(methyl)amino)heptyl)thio)-1-oxoisoindolin-2-yl)piperidine-2,6-dione], the IC50 was 0.25 nM.

Consider `O=C1CCC(N2Cc3c(SCCCCCCCNC4CC4)cccc3C2=O)C(=O)N1` (centres unmarked) [SIAIS1222105, 3-(4-((7-(cyclopropylamino)heptyl)thio)-1-oxoisoindolin-2-yl)piperidine-2,6-dione], for which the IC50 is 0.181 nM.

Consider `O=C1CCC(N2Cc3c(SCCCCCCCN4C[C@H]5CCCC[C@H]5C4)cccc3C2=O)C(=O)N1` (stereo partly drawn) [SIAIS1222107, 3-(4-((7-((3aR,7aS)-hexahydro-1H-isoindol-2(3H)-yl)heptyl)thio)-1-oxoisoindolin-2-yl)piperidine-2,6-dione], for which the IC50 worked out at 0.05 nM.

On to `O=C1CCC(N2C(=O)c3cccc(SCCCCCCNC45CC6CC(CC(C6)C4)C5)c3C2=O)C(=O)N1` (centres unmarked) [SIAIS1222109, 4-((6-((adamantan-1-yl)amino)hexyl)thio)-2-(2,6-dioxopiperidin-3-yl)isoindoline-1,3-dione], for which the IC50 was 0.404 nM.

`O=C1CCC(N2Cc3c(SCCCCCCCNC4CCC4)cccc3C2=O)C(=O)N1` (centres unmarked) [SIAIS1222115, 3-(4-((7-(cyclobutylamino)heptyl)thio)-1-oxoisoindolin-2-yl)piperidine-2,6-dione]: the IC50 came to 0.182 nM.

Regarding `O=C1CCC(N2Cc3c(SCCCCCCCNC4CCCC4)cccc3C2=O)C(=O)N1` (centres unmarked) [SIAIS1222117, 3-(4-((7-(cyclopentylamino)heptyl)thio)-1-oxoisoindolin-2-yl)piperidine-2,6-dione], the IC50 came to 0.123 nM.

In the case of `O=C1CCC(N2Cc3c(SCCCCCCCNC45CC(C4)C5)cccc3C2=O)C(=O)N1` (centres unmarked) [SIAIS1222123, 3-(4-((7-(bicyclo[1.1.1]pentan-1-ylamino)heptyl)thio)-1-oxoisoindolin-2-yl)piperidine-2,6-dione], the IC50 was 0.053 nM.

As for `CC(NCCCCCCSc1cccc2c1CN(C1CCC(=O)NC1=O)C2=O)C12CC3CC(CC(C3)C1)C2` (centres unmarked) [SIAIS1222139, 3-(4-((6-((1-(adamantan-1-yl)ethyl)amino)hexyl)thio)-1-oxoisoindolin-2-yl)piperidine-2,6-dione], the IC50 worked out at 0.131 nM.

For the compound `O=C1CCC(N2Cc3c(SCCCCCCCNC45CC6CC(CC(O)(C6)C4)C5)cccc3C2=O)C(=O)N1` (centres unmarked) [SIAIS1222141], the IC50 was 0.342 nM.

As to `O=C1CCC(N2Cc3c(SCCCCCCNC(=O)C45CC6CC(CC(C6)C4)C5)cccc3C2=O)C(=O)N1` (centres unmarked) [SIAIS1222143, N-(6-((2-(2,6-dioxopiperidin-3-yl)-1-oxoisoindolin-4-yl)thio)hexyl)adamantane-1-carboxamide], the IC50 came out at 0.07 nM.

Turning to `O=C1CCC(N2Cc3c(SCCCCCCNC(=O)C45CC6CC(CC(Cl)(C6)C4)C5)cccc3C2=O)C(=O)N1` (centres unmarked) [SIAIS1222145, 3-chloro-N-(6-((2-(2,6-dioxopiperidin-3-yl)-1-oxoisoindolin-4-yl)thio)hexyl)adamantane-1-carboxamide], the IC50 came to 0.043 nM.

As for `O=C1CCC(N2Cc3c(SCCCCCCNCC4CCCCC4)cccc3C2=O)C(=O)N1` (centres unmarked) [SIAIS1222147, 3-(4-((6-((cyclohexylmethyl)amino)hexyl)thio)-1-oxoisoindolin-2-yl)piperidine-2,6-dione], the IC50 came out at 0.083 nM.

In the case of `CC(NCc1ccc(CSc2cccc3c2CN(C2CCC(=O)NC2=O)C3=O)cc1)C12CC3CC(CC(C3)C1)C2` (centres unmarked) [SIAIS1222157, 3-(4-((4-(((1-(adamantan-1-yl)ethyl)amino)methyl)benzyl)thio)-1-oxoisoindolin-2-yl)piperidine-2,6-dione], the IC50 is 0.04 nM.

In the case of `O=C1CCC(N2Cc3c(SCc4ccc(CNC5CC6(CCC6)C5)cc4)cccc3C2=O)C(=O)N1` (centres unmarked) [SIAIS1222159, 3-(1-oxo-4-((4-((spiro[3.3]heptan-2-ylamino)methyl)benzyl)thio)isoindolin-2-yl)piperidine-2,6-dione], the IC50 amounted to 0.05 nM.

For the compound `O=C1CCC(N2Cc3c(SCc4ccc(CNC56CC(C5)C6)cc4)cccc3C2=O)C(=O)N1` (centres unmarked) [SIAIS1222161, 3-(4-((4-((bicyclo[1.1.1]pentan-1-ylamino)methyl)benzyl)thio)-1-oxoisoindolin-2-yl)piperidine-2,6-dione], the IC50 is 0.035 nM.

With `O=C1CCC(N2Cc3c(SCCC45CC6CC(CC(C6)C4)C5)cccc3C2=O)C(=O)N1` (centres unmarked) [SIAIS1222173, 3-(4-((2-(adamantan-1-yl)ethyl)thio)-1-oxoisoindolin-2-yl)piperidine-2,6-dione], the IC50 is 0.42 nM.

For `O=C1CCC(N2Cc3c(SCCCNC45CC6CC(CC(C6)C4)C5)cccc3C2=O)C(=O)N1` (centres unmarked) [SIAIS1222177, 3-(4-((3-(adamantan-1-ylamino)propyl)thio)-1-oxoisoindolin-2-yl)piperidine-2,6-dione], the IC50 amounted to 0.693 nM.

For `O=C1CCC(N2Cc3c(SCCCCNC45CC6CC(CC(C6)C4)C5)cccc3C2=O)C(=O)N1` (centres unmarked) [SIAIS1222179, 3-(4-((4-((adamantan-1-yl)amino)butyl)thio)-1-oxoisoindolin-2-yl)piperidine-2,6-dione], the IC50 worked out at 0.074 nM.

Take `O=C1CCC(N2Cc3c(SCc4ccc(CNCC5CCCCC5)cc4)cccc3C2=O)C(=O)N1` (centres unmarked) [SIAIS1222187, 3-(4-((4-(((cyclohexylmethyl)amino)methyl)benzyl)thio)-1-oxoisoindolin-2-yl)piperidine-2,6-dione]: the IC50 was 0.005 nM.

As for `O=C1CCC(N2Cc3c(SCCCCCCCN4CCC5(CC4)CC5)cccc3C2=O)C(=O)N1` (centres unmarked) [SIAIS1222195, 3-(4-((7-(6-azaspiro[2.5]octan-6-yl)heptyl)thio)-1-oxoisoindolin-2-yl)piperidine-2,6-dione], the IC50 worked out at 0.046 nM.

For the compound `O=C1CCC(N2Cc3c(SCCCCCCCNCC4CCCCC4)cccc3C2=O)C(=O)N1` (centres unmarked) [SIAIS1222199, 3-(4-((7-((cyclohexylmethyl)amino)heptyl)thio)-1-oxoisoindolin-2-yl)piperidine-2,6-dione], the IC50 was found to be 0.062 nM.

Take `O=C1CCC(N2C(=O)c3cccc(SCCCCCCCNC4CC5(CCC5)C4)c3C2=O)C(=O)N1` (centres unmarked) [SIAIS1224015, 2-(2,6-dioxopiperidin-3-yl)-4-((7-(spiro[3.3]heptan-2-ylamino)heptyl)thio)isoindoline-1,3-dione]: the IC50 came out at 0.691 nM.

With `O=C1CCC(N2Cc3c(SCc4ccc(CNCC5CCCCO5)cc4)cccc3C2=O)C(=O)N1` (centres unmarked) [SIAIS1224019, 3-(1-oxo-4-((4-((((tetrahydro-2H-pyran-2-yl)methyl)amino)methyl)benzyl)thio)isoindolin-2-yl)piperidine-2,6-dione], the IC50 turned out to be 0.048 nM.

Consider `O=C1CCC(N2Cc3c(SCCCCCCCNC(C4CC4)C4CC4)cccc3C2=O)C(=O)N1` (centres unmarked) [SIAIS1224031, 3-(4-((7-((dicyclopropylmethyl)amino)heptyl)thio)-1-oxoisoindolin-2-yl)piperidine-2,6-dione], for which the IC50 was 0.105 nM.
